The values that follow come from US12030864B2, “Small molecule anticancer agents, combinations and uses thereof” (priority 2018, dated 2024).

Where two headings read alike, the source gives them in different places. A value given as a limit tells only on which side of the number the result lay.

Experiment [1] relates to MDA-MB-468 cells. Description: Protein synthesis assay. In kind it is cell-based. How it is done: FIG. 11. depicts the inhibition of global protein synthesis upon treatment of MDA-MB-468 cells with tcyDTDO.
(§1) Cell viability (FIG. 12), proliferation (FIG. 13), and protein synthesis (FIG. 14) assays were performed in MDA-MB-468 cell line in the presence of increasing concentrations of tcyDTDO or DMtcyDTDO.
(§2) Thus, without being bound by any particular theory, it is speculated that compounds of Formula (I)-(VI) regulate DR5 steady-state protein levels in addition to the observed transcriptional induction.

The test system of experiment [2] is MDA-MB-468 cells. In words: Immunoblot assays. In kind it is cell-based. Particulars: for PARP cleavage: MDA-MB-468, single agent, FIG. 15; for responsiveness of the cell line to treatment: MDA-MB-468 TNBC line.
For experiment [3], the system named is EGFR, DR4, and DR5 in MDA-MB-468 breast cancer cells. Description: Immunoblot of cell extracts prepared under non-reducing conditions. It is filed as cell-based. As to conditions: 24 h, FIG. 16. How it is done: MDA-MB-468 breast cancer cells were treated for 24 h with the indicated concentrations of DMtcyDTDO and cells were analyzed by immunoblot. Cell extracts were prepared under non-reducing conditions in the presence of 100 mM N-ethylmaleimide to preserve disulfide bonding patterns (FIG. 16). […] The oligomerized forms of DR4 and DR5 represent the activated form of these receptors.

The subject of a further experiment is MDA-MB-468 cell line. In words: Cell proliferation assay. As to conditions: 24 treatment, FIG. 13. In kind it is cell-based. How it is done: as §1
For experiment [4], the system named is MDA-MB-468 cells. Description: MTT cell viability assay. In kind it is cell-based. On the procedure:
MTT cell viability was evaluated using MTT (3-(4,5-dimethylthiazol-2-yl)-2,5-diphenyltetrazolium bromide) assays carried out based on the manufacturer's instructions (kit CGD1, Sigma-Aldrich, St. Louis, MO).
Cell viability assays were performed in MDA-MB-468 (FIG. 8) and BT474 (FIG. 9) cell lines in the presence of increasing concentrations of tcyDTDO and/or TRAIL using the MTT method. The results were analyzed using the Chou-Talalay method [T. C. Chou, P. Talalay, Generalized equations for the analysis of inhibitions of Michaelis-Menten and higher-order kinetic systems with two or more mutually exclusive and nonexclusive inhibitors, Eur J Biochem, 115 (1981) 207-216; T. C. Chou, P. Talalay, Quantitative analysis of dose-effect relationships: the combined effects of multiple drugs or enzyme inhibitors, Adv Enzyme Regul, 22 (1984) 27-55.] to calculate combination indices (Cis) where CI<1 denotes synergy, CI=1 denotes additivity, and C I>1 denotes antagonism.
as §1

Experiment [5] relates to DR5Long in MDA-MB-468 cell line. It is filed as cell-based. An excerpt: A MDA-MB-468 cell line was engineered to stably express the long form of DR5 (DR5Long) in a tetracycline-inducible manner in order to separate DR5A effects on DR5 protein stability from transcriptional activation.
For experiment [6], the system named is protein thiolates of MDA-MB-468 cell lysates. Description: Protein thiolate reactivity assay (BGPD labeling of cell lysates). It is filed as biochemical. Particulars: MDA-MB-468 cell lysates treated with compound in molar excess, then BGPD; FIG. 2. On the procedure:
To assess tcyDTDO reactivity with protein thiolates, MDA-MB-468 cell lysates were treated with various compounds in sufficient molar excess to block all protein thiolates. A non-selective thiol-reactive biotinylated analog (BGPD, FIG. 2) was then added to quantify free thiolates remaining after the pre-labeling.

The test system of the next experiment is DR5 in MDA-MB-468 cells. Description: DR5 oligomerization immunoblot. In kind it is cell-based. As to conditions: FIGS. 6 and 7. From the text: Oligomerization of DR5 was also investigated in MDA-MB-468 cells as shown in FIG. 6 and FIG. 7, which is a magnification of the DR5Long/DR5Short portion of the immunoblot in FIG. 6.
For experiment [7], the system named is DR5 transcription in HEK293 cells. In words: DR5 transcriptional reporter construct. In kind it is cell-based. As to conditions: 5 μM; FIG. 10.
Text: FIG. 10. depicts increases in DR5 transcription by tcyDTDO in HEK293 cells as measured using a transcriptional reporter construct.
as §2

For another experiment, the system named is BT474 cells. In words: Immunoblot assays. It is filed as cell-based. As to conditions: BT474 cancer line.

`CO[C@H]1C[C@@H]2CS(=O)(=O)SC[C@H]2C[C@@H]1OC` (racemic) [DMtcyDTDO, (4aS,6S,7S,8aS)- and (4aR,6R,7R,8aR)-6,7-Dimethoxyoctahydrobenzo[d][1,2]dithiine 2,2-dioxide]: the “effect on protein synthesis compared to equal doses of tcyDTDO” value in the experiment with MDA-MB-468 cells [1] (24 treatment, FIG. 14) is given as “significantly greater effect”. Also, in the experiment with MDA-MB-468 cells [2], the PARP cleavage entry is given as “induce PARP cleavage” and the “responsiveness of the cell line to treatment” value (from here on “responsiveness”) is “highly responsive”. Further, the “oligomerization of EGFR, DR4, and DR5” value in [3] (100 mM N-ethylmaleimide) is “induces oligomerization of EGFR, DR4, and DR5”. Moreover, the DR5 level entry in experiment [3] was “upregulates DR5”. Moreover, in the experiment with MDA-MB-468 cell line, the “effect on proliferation compared to equal doses of tcyDTDO” value was “significantly greater effect”. Further, in the experiment on MDA-MB-468 cells [4] (MDA-MB-468, 24 treatment, FIG. 12), the “effect on cell viability compared to equal doses of tcyDTDO” value was “significantly greater effect”.

With `CC(C)[C@H](NC(=O)c1ccc2ccccc2n1)C(=O)N[C@@H](CC(=O)O)C(=O)COc1c(F)cccc1F` [Q-VD-OPH, reference compound], in the experiment on MDA-MB-468 cells [2] (MDA-MB-468 cells), the “effect on tcyDTDO/TRAIL downregulation of EGFR, Akt, phospho-Akt, PDK1” value was “partially reverses”. Besides, the “effect on tcyDTDO-mediated upregulation of DR5 or the ER stress response” value in the experiment with MDA-MB-468 cells [2] (caspase inhibitor added) was “does not alter”. Also, the “effect on PARP cleavage induced by tcyDTDO/TRAIL” value in the experiment on MDA-MB-468 cells [2] (caspase inhibitor added, FIGS. 3, 4) is recorded as “blocked”.

With Cyclosporine A [Cyclosporine A (CsA)], the “doxycycline-mediated increase in DR5Long” value in experiment [5] is “did not mimic the effects of tcyDTDO”.

Regarding `C/C=C(/C)C(=O)O[C@H]1C(C)=C2[C@H]([C@@H]1OC(=O)CCCCCCC)[C@@](C)(OC(C)=O)C[C@H](OC(=O)CCC)[C@@]1(O)[C@H]2OC(=O)[C@@]1(C)O` [Thapsigargin], in experiment [5] (reducing conditions, FIG. 5), the “doxycycline-mediated increase in DR5Long” value is “did not mimic the effects of tcyDTDO”.

Turning to `O=S1(=O)CC2CCCCC2CS1` (stereo not shown) [tcyDTDO], the “doxycycline-mediated increase in DR5Long” value in experiment [5] (reducing conditions, FIG. 5) is on record as “enhanced”. Moreover, the inhibition at 5 µM in the experiment with MDA-MB-468 cells [1] (Homo sapiens, 5 μM, FIG. 11, read-out: inhibition of global protein synthesis) is over 95%. In the experiment with MDA-MB-468 cells [2], the PARP cleavage result is “induce PARP cleavage” and the “responsiveness” value was “highly responsive”. For the same molecule, the DR5 expression entry in the experiment with MDA-MB-468 cells [2] (immunoblot) is listed as “increased DR5 expression”. In addition, in experiment [6], the “BGPD labeling of free thiolates remaining after pre-labeling” value is given as “did not reduce BGPD labeling”. Besides, the “DR5 dimerization and oligomerization” value in the experiment with DR5 in MDA-MB-468 cells was “increase in DR5 dimerization and oligomerization”. The DR5 transcription entry in [7] is listed as “increased DR5 transcription”. The “responsiveness” value in the experiment with BT474 cells was “highly responsive”. In the experiment with MDA-MB-468 cells [4] (MTT, FIG. 1, compared with the other compounds profiled), the “potency in reducing cancer cell viability” value was “most potent compound identified so far”.

Consider `CCN1C(=O)C=CC1=O` [N-ethylmaleimide (NEM), N-ethylmaleimide, reference compound], for which the “BGPD labeling of free thiolates remaining after pre-labeling” value in experiment [6] was “prevented BGPD labeling”.

On to `O[C@H](CS)[C@H](O)CS` (racemic) [Dithiothreitol (DTT), Dithiothreitol], for which, in experiment [5] (reducing conditions, FIG. 5), the “doxycycline-mediated increase in DR5Long” value is “did not mimic the effects of tcyDTDO”.

Consider Tunicamycin, for which, in [5] (reducing conditions, FIG. 5), the “doxycycline-mediated increase in DR5Long” value was “did not mimic the effects of tcyDTDO”.
